Data taken from publication PMC7486443, “Generation of Phenothiazine with Potent Anti-TLK1 Activity for Prostate Cancer Therapy” (iScience, 2020).

Key:
Assay in all cases: biochemical
Set-up in all cases: DiscoverX KINOMEscan scanMAX competition binding panel, single concentration, percent of control; remaining binding: dose or concentration left out as unconfirmed
Details in all cases: KINOMEscan binding, percent of control; read-out: Table S4_SCANMAX REPORT - related to Fig. 1 / Percent Control
[1] = target: T1, ERK3 (Homo sapiens, UniProt Q16659)
T1 construct: gene MAPK6

[2] = target: CDKL2 (Homo sapiens, UniProt Q92772)
[3] = target: PLK4 (Homo sapiens, UniProt O00444)
[4] = target: WNK3 (Homo sapiens, UniProt Q9BYP7)
[5] = target: FLT1 (Homo sapiens, UniProt P17948)
[6] = target: MYLK4 (Homo sapiens, UniProt Q86YV6)
[7] = target: VRK2 (Homo sapiens, UniProt Q86Y07)
[8] = target: EGFR(S752-I759del) (Homo sapiens, UniProt P00533, DEL752-759)
[9] = target: CSNK1A1 (Homo sapiens, UniProt P48729)
[10] = target: FLT3(ITD) (Homo sapiens, UniProt P36888, ITD)
[11] = target: RIPK2 (Homo sapiens, UniProt O43353)
[12] = target: BTK (Homo sapiens, UniProt Q06187)
[13] = target: EPHA5 (Homo sapiens, UniProt P54756)
[14] = target: BMPR1A (Homo sapiens, UniProt P36894)
[15] = target: LIMK1 (Homo sapiens, UniProt P53667)
[16] = target: MST1R (Homo sapiens, UniProt Q04912)
[17] = target: PIK3C2B (Homo sapiens, UniProt O00750)
[18] = target: T2, OSR1 (Homo sapiens, UniProt O95747)
T2 construct: gene OXSR1

[19] = target: MERTK (Homo sapiens, UniProt Q12866)

Sequence of BTK (Q06187 whole entry): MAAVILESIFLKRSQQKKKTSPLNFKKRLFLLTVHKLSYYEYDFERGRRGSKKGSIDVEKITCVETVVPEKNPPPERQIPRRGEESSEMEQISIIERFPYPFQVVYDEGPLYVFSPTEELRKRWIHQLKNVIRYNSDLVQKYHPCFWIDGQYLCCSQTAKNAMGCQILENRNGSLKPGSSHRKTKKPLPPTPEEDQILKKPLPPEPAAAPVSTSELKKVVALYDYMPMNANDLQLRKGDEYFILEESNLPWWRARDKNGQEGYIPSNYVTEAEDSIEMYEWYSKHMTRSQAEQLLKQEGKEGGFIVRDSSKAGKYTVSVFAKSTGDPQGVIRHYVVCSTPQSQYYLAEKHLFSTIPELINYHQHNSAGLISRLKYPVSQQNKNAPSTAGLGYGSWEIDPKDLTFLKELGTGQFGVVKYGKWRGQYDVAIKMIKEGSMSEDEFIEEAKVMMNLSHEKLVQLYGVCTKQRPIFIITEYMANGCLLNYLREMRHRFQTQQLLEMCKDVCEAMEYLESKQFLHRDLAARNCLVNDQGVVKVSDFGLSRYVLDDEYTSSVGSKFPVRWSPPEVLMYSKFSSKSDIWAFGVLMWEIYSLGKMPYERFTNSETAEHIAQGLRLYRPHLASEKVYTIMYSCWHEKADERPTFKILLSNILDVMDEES
T1 sequence (Q16659 whole entry): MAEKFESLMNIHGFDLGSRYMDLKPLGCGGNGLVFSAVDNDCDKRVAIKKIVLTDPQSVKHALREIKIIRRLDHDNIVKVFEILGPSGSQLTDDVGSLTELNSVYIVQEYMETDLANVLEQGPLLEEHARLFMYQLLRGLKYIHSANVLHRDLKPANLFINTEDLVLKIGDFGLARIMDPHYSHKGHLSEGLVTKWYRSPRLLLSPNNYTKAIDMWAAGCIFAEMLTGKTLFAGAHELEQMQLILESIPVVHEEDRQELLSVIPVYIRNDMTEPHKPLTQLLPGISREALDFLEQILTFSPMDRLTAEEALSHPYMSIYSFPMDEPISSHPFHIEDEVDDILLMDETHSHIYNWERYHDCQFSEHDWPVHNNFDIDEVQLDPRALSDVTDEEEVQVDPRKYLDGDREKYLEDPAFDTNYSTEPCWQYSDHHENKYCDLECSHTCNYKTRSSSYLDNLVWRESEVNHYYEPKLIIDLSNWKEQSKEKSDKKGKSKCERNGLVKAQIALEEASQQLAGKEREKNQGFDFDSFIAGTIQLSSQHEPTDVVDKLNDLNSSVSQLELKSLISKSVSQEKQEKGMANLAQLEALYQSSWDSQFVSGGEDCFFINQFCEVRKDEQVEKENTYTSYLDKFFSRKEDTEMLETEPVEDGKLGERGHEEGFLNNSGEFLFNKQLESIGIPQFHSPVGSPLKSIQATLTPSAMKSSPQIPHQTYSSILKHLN
Sequence of WNK3 (Q9BYP7 whole entry): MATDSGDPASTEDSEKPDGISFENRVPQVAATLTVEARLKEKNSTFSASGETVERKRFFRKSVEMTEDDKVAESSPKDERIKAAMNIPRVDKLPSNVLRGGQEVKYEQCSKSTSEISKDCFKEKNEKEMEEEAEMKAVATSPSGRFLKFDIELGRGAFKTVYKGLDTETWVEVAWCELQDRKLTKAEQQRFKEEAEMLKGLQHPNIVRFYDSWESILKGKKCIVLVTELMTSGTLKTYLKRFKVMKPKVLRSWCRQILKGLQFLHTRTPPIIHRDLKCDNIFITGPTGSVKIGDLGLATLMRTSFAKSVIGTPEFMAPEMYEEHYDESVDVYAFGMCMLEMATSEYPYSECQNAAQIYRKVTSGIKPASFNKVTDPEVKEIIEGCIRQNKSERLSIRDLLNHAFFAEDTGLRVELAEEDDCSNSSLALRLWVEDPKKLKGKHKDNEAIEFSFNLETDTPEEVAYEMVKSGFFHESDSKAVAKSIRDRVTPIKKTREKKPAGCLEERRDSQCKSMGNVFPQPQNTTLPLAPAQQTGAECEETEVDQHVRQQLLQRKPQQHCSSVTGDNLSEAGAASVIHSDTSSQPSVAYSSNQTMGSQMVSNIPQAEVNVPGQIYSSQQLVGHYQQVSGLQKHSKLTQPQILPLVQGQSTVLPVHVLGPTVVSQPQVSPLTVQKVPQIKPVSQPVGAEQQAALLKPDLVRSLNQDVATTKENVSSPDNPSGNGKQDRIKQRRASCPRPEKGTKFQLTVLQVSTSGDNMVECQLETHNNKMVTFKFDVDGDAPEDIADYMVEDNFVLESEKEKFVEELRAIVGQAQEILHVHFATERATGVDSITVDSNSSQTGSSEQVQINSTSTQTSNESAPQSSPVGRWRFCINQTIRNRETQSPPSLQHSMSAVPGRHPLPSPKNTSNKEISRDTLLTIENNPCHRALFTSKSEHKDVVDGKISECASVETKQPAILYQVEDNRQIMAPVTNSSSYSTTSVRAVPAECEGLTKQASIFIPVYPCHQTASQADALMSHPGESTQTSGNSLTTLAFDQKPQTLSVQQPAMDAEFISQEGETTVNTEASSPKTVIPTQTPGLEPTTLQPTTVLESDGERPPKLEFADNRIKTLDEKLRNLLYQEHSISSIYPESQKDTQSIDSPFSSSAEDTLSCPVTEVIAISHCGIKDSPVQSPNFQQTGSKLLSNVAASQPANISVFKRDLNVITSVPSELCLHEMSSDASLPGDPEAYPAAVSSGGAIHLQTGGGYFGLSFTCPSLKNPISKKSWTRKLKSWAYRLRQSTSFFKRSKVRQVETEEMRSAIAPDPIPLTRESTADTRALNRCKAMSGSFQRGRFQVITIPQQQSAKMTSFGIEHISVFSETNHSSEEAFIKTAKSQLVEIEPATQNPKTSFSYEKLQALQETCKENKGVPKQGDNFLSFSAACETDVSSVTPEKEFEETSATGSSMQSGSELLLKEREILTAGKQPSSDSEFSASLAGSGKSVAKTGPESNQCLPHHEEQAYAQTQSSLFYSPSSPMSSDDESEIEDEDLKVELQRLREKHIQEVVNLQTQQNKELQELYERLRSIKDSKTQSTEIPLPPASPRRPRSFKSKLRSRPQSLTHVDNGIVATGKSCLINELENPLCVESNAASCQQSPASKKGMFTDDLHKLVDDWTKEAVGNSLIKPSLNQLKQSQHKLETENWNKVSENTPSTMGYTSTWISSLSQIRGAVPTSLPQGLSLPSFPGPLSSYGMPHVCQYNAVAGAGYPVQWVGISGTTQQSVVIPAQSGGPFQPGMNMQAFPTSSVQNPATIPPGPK
Sequence of RIPK2 (O43353 whole entry): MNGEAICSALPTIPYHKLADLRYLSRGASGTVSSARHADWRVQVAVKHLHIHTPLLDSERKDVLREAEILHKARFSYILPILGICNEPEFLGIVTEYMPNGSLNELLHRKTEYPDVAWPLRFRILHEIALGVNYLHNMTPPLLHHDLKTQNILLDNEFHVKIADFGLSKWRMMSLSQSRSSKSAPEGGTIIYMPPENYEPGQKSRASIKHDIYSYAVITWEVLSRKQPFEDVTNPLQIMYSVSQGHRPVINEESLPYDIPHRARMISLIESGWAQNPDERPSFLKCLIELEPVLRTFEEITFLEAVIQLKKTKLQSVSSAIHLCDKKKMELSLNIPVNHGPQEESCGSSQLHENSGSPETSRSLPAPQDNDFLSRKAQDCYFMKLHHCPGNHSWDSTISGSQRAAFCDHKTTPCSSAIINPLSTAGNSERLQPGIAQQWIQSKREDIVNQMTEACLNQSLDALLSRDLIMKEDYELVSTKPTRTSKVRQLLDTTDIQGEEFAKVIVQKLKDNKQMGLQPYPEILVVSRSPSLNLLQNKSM
Sequence of PLK4 (O00444 whole entry): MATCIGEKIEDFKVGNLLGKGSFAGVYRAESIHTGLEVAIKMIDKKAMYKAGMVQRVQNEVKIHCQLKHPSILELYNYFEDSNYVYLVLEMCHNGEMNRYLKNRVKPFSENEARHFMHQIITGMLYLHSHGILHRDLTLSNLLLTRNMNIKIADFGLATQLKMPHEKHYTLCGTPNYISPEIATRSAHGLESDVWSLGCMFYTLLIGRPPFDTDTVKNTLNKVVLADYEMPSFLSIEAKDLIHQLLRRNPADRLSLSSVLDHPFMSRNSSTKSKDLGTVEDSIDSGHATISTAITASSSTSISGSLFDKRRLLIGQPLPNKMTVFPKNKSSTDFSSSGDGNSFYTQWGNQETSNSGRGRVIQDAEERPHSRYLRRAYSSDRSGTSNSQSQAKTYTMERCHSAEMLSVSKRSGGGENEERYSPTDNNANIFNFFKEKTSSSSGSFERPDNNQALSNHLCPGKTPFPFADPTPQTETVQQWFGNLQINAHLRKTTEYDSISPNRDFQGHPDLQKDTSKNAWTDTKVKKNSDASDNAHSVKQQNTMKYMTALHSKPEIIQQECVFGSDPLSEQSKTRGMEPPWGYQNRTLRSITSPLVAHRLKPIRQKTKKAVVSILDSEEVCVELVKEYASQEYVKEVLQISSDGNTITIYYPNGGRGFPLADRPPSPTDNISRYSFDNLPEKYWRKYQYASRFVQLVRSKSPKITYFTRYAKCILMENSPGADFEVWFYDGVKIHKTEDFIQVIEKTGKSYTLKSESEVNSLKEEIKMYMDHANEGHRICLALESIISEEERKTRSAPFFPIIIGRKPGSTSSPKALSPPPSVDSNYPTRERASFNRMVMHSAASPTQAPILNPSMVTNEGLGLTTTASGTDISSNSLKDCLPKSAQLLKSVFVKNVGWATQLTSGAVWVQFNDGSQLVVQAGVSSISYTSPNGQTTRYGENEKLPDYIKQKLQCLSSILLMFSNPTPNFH
Sequence of CSNK1A1 (P48729 whole entry): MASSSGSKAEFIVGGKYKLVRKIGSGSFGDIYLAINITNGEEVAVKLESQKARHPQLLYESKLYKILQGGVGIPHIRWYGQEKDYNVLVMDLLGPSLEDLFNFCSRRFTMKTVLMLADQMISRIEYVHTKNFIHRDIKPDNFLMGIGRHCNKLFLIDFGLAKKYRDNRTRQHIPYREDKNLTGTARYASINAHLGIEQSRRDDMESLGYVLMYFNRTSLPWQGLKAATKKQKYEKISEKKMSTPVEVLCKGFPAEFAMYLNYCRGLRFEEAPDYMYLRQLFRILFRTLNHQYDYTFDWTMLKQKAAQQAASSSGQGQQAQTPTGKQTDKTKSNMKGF

c1ccc2c(c1)Sc1ccccc1N2CCN1CCOCC1 [J54]
remaining binding [1]: 73%
remaining binding [2]: 100%
remaining binding [3]: 85%
remaining binding [4]: 98%
remaining binding [5]: 98%
remaining binding [6]: 99%
remaining binding [7]: 70%
remaining binding [8]: 94%
remaining binding [9]: 100%
remaining binding [10]: 68%
remaining binding [11]: 100%
remaining binding [12]: 97%
remaining binding [13]: 100%
remaining binding [14]: 72%
remaining binding [15]: 100%
remaining binding [16]: 100%
remaining binding [17]: 96%
remaining binding [18]: 100%
remaining binding [19]: 100%
